Consider one compound from US8648061B2, “Use of polyunsaturated fatty acids for the primary prevention of major cardiovascular events” (Pro Aparts Investimentos E. Consultoria LDA., priority 2001, dated 2014).

This data set concerns non-anesthetized guinea pigs. Put plainly: preliminary tests: minimum lethal dose of ouabain. It is filed as in vivo, guinea pig. The conditions noted are these: intravenously administered over 3 minutes. As to the method: The experimental sudden death model was obtained by cardiac arrest induced by intravenous (i.v.) administration of a cardiotoxic agent (ouabain). In preliminary tests, various doses of ouabain were administered to non-anesthetized guinea pigs of both sexes of weight 300-380 g, in order to determine the minimum lethal dose for 100% of the animals within 15 minutes from i.v. injection (240 mg/kg, intravenously administered over 3 minutes).

As for `C[C@@H]1O[C@@H](O[C@H]2C[C@@H](O)[C@]3(CO)[C@H]4[C@H](O)C[C@]5(C)[C@@H](C6=CC(=O)OC6)CC[C@]5(O)[C@@H]4CC[C@]3(O)C2)[C@H](O)[C@H](O)[C@H]1O` [ouabain], the “minimum lethal dose for 100% of the animals within 15 minutes from i.v. injection” value was determined as 240 mg/kg.
